Laboratory results from patent US9187472B2 (AbbVie Inc., priority 2012, dated 2015).

Tested on: PC3 cells
Test: NAMPT Cell Proliferation Assay
Assay type: cell-based
Settings: Homo sapiens, PC-3, 120 h, 5 days incubation, cell viability by Cell Titer Glo
In short: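 PC3 cells were plated at 500 cells/well in RPMI with 10% heat-inactivated FBS, left to attach overnight, then given compounds in 10-fold dilutions from 10 μM to 1×10^−5 μM. After 5 days at 37° C and 5% CO2, viability was read by luminescence and IC50s came from sigmoidal fits of percent inhibition.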

Structure (SMILES) | IC50 [nM]
Cc1cc(C(=O)N2CCC(c3ccc(NC(=O)NCc4ccn5ccnc5c4)cc3)CC2)cnc1C [Example 1059, 1-(4-{1-[(5,6-dimethylpyridin-3-yl)carbonyl]piperidin-4-yl}phenyl)-3-(imidazo[1,2-a]pyridin-7-ylmethyl)urea] | 16.4
O=C(NCc1ccn2ccnc2c1)Nc1ccc(C2CCN(C(=O)c3cccc4ncsc34)CC2)cc1 [Example 1060, 1-{4-[1-(1,3-benzothiazol-7-ylcarbonyl)piperidin-4-yl]phenyl}-3-(imidazo[1,2-a]pyridin-7-ylmethyl)urea] | 2.29
O=C(NCc1ccn2ccnc2c1)c1ccc(C2CCN(C(=O)c3cc(Cl)ncc3F)CC2)cc1 [Example 1061, 4-{1-[(2-chloro-5-fluoropyridin-4-yl)carbonyl]piperidin-4-yl}-N-(imidazo[1,2-a]pyridin-7-ylmethyl)benzamide] | 7.84
O=C(NCc1ccn2ccnc2c1)c1ccc(C2CCN(C(=O)c3cc(C4CC4)no3)CC2)cc1 [Example 1062, 4-{1-[(3-cyclopropyl-1,2-oxazol-5-yl)carbonyl]piperidin-4-yl}-N-(imidazo[1,2-a]pyridin-7-ylmethyl)benzamide] | 17
COc1ccsc1C(=O)N1CCC(c2ccc(C(=O)NCc3ccn4ccnc4c3)cc2)CC1 [Example 1063, N-(imidazo[1,2-a]pyridin-7-ylmethyl)-4-{1-[(3-methoxythiophen-2-yl)carbonyl]piperidin-4-yl}benzamide] | 1.89
Cc1oc(C(C)C)cc1C(=O)N1CCC(c2ccc(C(=O)NCc3ccn4ccnc4c3)cc2)CC1 [Example 1064, N-(imidazo[1,2-a]pyridin-7-ylmethyl)-4-(1-{[2-methyl-5-(propan-2-yl)furan-3-yl]carbonyl}piperidin-4-yl)benzamide] | 4.12
CC(Oc1cccc(F)c1)C(=O)N1CCC(c2ccc(NC(=O)NCc3ccn4ccnc4c3)cc2)CC1 (stereo not shown) [Example 1065, 1-(4-{1-[2-(3-fluorophenoxy)propanoyl]piperidin-4-yl}phenyl)-3-(imidazo[1,2-a]pyridin-7-ylmethyl)urea] | 1.43
O=C(NCc1ccn2ccnc2c1)Nc1ccc(C2CCN(C(=O)c3ncc(F)cc3F)CC2)cc1 [Example 1066, 1-(4-{1-[(3,5-difluoropyridin-2-yl)carbonyl]piperidin-4-yl}phenyl)-3-(imidazo[1,2-a]pyridin-7-ylmethyl)urea] | 5.7
CC(C)(C)OC(=O)N1CCC(c2ccc(NC(=O)Cc3ccn4ccnc4c3)c(F)c2)CC1 [Example 1067, tert-butyl 4-{3-fluoro-4-[(imidazo[1,2-a]pyridin-7-ylacetyl)amino]phenyl}piperidine-1-carboxylate] | 370
O=C(NCc1ccn2ccnc2c1)c1ccc(C2CCN(C(=O)N3CCCCC3)CC2)cc1 [Example 1068, N-(imidazo[1,2-a]pyridin-7-ylmethyl)-4-[1-(piperidin-1-ylcarbonyl)piperidin-4-yl]benzamide] | 5.77
O=C(NCc1ccn2ccnc2c1)Nc1ccc(C2CCN(C(=O)c3ccccc3)CC2)cc1F [Example 1069, 1-[4-(1-benzoylpiperidin-4-yl)-2-fluorophenyl]-3-(imidazo[1,2-a]pyridin-7-ylmethyl)urea] | 1.23
CC(C)(C)C(=O)N1CCC(c2ccc(NC(=O)NCc3ccn4ccnc4c3)c(F)c2)CC1 [Example 1070, 1-{4-[1-(2,2-dimethylpropanoyl)piperidin-4-yl]-2-fluorophenyl}-3-(imidazo[1,2-a]pyridin-7-ylmethyl)urea] | 0.857
CC(C)(C)CC(=O)N1CCC(c2ccc(NC(=O)NCc3ccn4ccnc4c3)c(F)c2)CC1 [Example 1071, 1-{4-[1-(3,3-dimethylbutanoyl)piperidin-4-yl]-2-fluorophenyl}-3-(imidazo[1,2-a]pyridin-7-ylmethyl)urea] | 0.473
CC(C)CCC(=O)N1CCC(c2ccc(NC(=O)NCc3ccn4ccnc4c3)c(F)c2)CC1 [Example 1072, 1-{2-fluoro-4-[1-(4-methylpentanoyl)piperidin-4-yl]phenyl}-3-(imidazo[1,2-a]pyridin-7-ylmethyl)urea] | 6.24
CC[C@H](C)C(=O)N1CCC(c2ccc(NC(=O)NCc3ccn4ccnc4c3)c(F)c2)CC1 [Example 1073, 1-(2-fluoro-4-{1-[(2S)-2-methylbutanoyl]piperidin-4-yl}phenyl)-3-(imidazo[1,2-a]pyridin-7-ylmethyl)urea] | 3.88
O=C(NCc1ccn2ccnc2c1)Nc1ccc(C2CCN(C(=O)C3CCOCC3)CC2)cc1F [Example 1074, 1-{2-fluoro-4-[1-(tetrahydro-2H-pyran-4-ylcarbonyl)piperidin-4-yl]phenyl}-3-(imidazo[1,2-a]pyridin-7-ylmethyl)urea] | 14.4
O=C(NCc1ccn2ccnc2c1)Nc1ccc(C2CCN(C(=O)c3ccccn3)CC2)cc1F [Example 1075, 1-{2-fluoro-4-[1-(pyridin-2-ylcarbonyl)piperidin-4-yl]phenyl}-3-(imidazo[1,2-a]pyridin-7-ylmethyl)urea] | 7.62
N#Cc1ccccc1C(=O)N1CCC(c2ccc(NC(=O)NCc3ccn4ccnc4c3)c(F)c2)CC1 [Example 1076, 1-{4-[1-(2-cyanobenzoyl)piperidin-4-yl]-2-fluorophenyl}-3-(imidazo[1,2-a]pyridin-7-ylmethyl)urea] | 5.7
CN(C)C(=O)N1CCC(c2ccc(C(=O)NCc3ccn4ccnc4c3)cc2)CC1 [Example 1077, 4-{4-[(imidazo[1,2-a]pyridin-7-ylmethyl)carbamoyl]phenyl}-N,N-dimethylpiperidine-1-carboxamide] | 69.1
CC(C)C(=O)N1CCC(c2ccc(NC(=O)NCc3ccn4ccnc4c3)c(F)c2)CC1 [Example 1078, 1-{2-fluoro-4-[1-(2-methylpropanoyl)piperidin-4-yl]phenyl}-3-(imidazo[1,2-a]pyridin-7-ylmethyl)urea] | 7.61
O=C(CC1CCCC1)Nc1ccc(C(=O)NCc2cn3ccnc3cc2F)cc1 [Example 1079, 4-[(cyclopentylacetyl)amino]-N-[(7-fluoroimidazo[1,2-a]pyridin-6-yl)methyl]benzamide] | 18.2
CC(C)Cn1cc(-c2ccc(C(=O)NCc3cn4ccnc4cc3F)s2)cn1 [Example 1080, N-[(7-fluoroimidazo[1,2-a]pyridin-6-yl)methyl]-5-[1-(2-methylpropyl)-1H-pyrazol-4-yl]thiophene-2-carboxamide] | 3.41
O=C(Cc1ccn2ccnc2c1)Nc1ccc(C2CCN(C(=O)c3ccccc3)CC2)cc1F [Example 1081, N-[4-(1-benzoylpiperidin-4-yl)-2-fluorophenyl]-2-(imidazo[1,2-a]pyridin-7-yl)acetamide] | 195
CC(C)(CN1CCNCC1)Cn1cc(-c2ccc(C(=O)NCc3ccn4ccnc4c3)s2)cn1 [Example 1082, 5-{1-[2,2-dimethyl-3-(piperazin-1-yl)propyl]-1H-pyrazol-4-yl}-N-(imidazo[1,2-a]pyridin-7-ylmethyl)thiophene-2-carboxamide] | 2.18
CC(C)(CN)Cn1cc(-c2ccc(C(=O)NCc3ccn4ccnc4c3)s2)cn1 [Example 1083, 5-[1-(3-amino-2,2-dimethylpropyl)-1H-pyrazol-4-yl]-N-(imidazo[1,2-a]pyridin-7-ylmethyl)thiophene-2-carboxamide] | 0.92
